Source: publication PMC3874090, “Synthesis and Evaluation of Anti-acetylcholinesterase Activity of 2-(2-(4-(2-Oxo-2-phenylethyl)piperazin-1-yl) ethyl)Isoindoline-1,3-dione Derivatives with Potential Anti-Alzheimer Effects” (Iranian Journal of Basic Medical Sciences, 2013)
Where two headings read alike, the source gives them in different places.

Tests used:
[1] = target: T1, acetylcholinesterase from electric eel (Electrophorus electricus, UniProt O42275); test: biochemical; conditions: Ellman test, electric eel AChE
T1 construct: purchased Sigma-Aldrich (Steinheim, Germany) Type V-S
Experimental: Lyophilized powder of acetylcholinesterase from electric eel source (AChE, E.C. 3.1.1.7, Type V-S, 1000 unit) was purchased from Sigma-Aldrich (Steinheim, Germany). 5,5'-Dithiobis-(2-nitrobenzoic acid, DTNB), potassium dihydrogen phosphate (KH2PO4), dipotassium hydrogen phosphate (K2HPO4), potassium hydroxide (KOH), sodium hydrogen carbonate (NaHCO3), and acetylthiocholine iodide were purchased from Fluka (Buchs, Switzerland).
According to the literature, the Ellman test was performed for assessment of the anticholinesterase activity of intended compounds in vitro. […] After rapid and immediate mixing the change of absorption was measured at 412 nm. The blank reading contained 3 ml buffer, 200 µl water, 100 µl DTNB and 20 µl substrate. The reaction rates were calculated, and the percent inhibition of test compounds was determined. Each concentration was analyzed in triplicate, and IC50 ± SD values were determined graphically from inhibition curves (log inhibitor concentration vs percent of inhibition) ([21], [22]).

[2] = target: acetylcholinesterase; design: method as in Sugimoto and collegues [20]; conditions: in Figure 2; ref Sugimoto and collegues [20]; read-out: IC50 of lead compound; cited from earlier work
[3] = preincubated 15 min at 25 °C, pH 8.0, triplicate, read-out: IC50 (μM ± SD), acetylcholinesterase inhibitory activity

T1 sequence (O42275 24-633): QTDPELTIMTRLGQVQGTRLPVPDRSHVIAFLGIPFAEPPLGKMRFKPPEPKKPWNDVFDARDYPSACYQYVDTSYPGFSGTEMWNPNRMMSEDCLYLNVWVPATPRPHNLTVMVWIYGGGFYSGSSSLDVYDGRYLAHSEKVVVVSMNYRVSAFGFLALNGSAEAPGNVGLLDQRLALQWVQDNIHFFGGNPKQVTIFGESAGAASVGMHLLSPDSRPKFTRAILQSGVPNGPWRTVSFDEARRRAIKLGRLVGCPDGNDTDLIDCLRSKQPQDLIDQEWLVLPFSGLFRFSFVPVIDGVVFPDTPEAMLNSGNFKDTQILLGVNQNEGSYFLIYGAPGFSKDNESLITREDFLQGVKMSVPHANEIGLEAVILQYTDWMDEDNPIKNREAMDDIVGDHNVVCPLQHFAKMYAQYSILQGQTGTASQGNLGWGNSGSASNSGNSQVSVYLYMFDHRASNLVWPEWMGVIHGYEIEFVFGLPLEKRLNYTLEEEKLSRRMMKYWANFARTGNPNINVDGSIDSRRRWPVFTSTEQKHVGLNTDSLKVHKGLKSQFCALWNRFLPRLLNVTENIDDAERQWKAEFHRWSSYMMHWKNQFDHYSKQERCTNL

SMILES	IC50 [1, 3] [µM]	further results
O=C(CN1CCN(CCN2C(=O)c3ccccc3C2=O)CC1)c1ccccc1 [Compound 4a, 2-(2-(4-(2-Oxo-2-phenylethyl)piperazin-1-yl)ethyl)isoindoline-1,3-dione]	45.6 ± 2.78	
O=C(CN1CCN(CCN2C(=O)c3ccccc3C2=O)CC1)c1ccc(F)cc1 [Compound 4b, 2-(2-(4-(2-(4-Fluorophenyl)-2-oxoethyl)piperazin-1-yl)ethyl)isoindoline-1,3-dione]		IC50 ([1]; read-out: IC50, acetylcholinesterase inhibition): 16.4 ± 1.07 µM
O=C(CN1CCN(CCN2C(=O)c3ccccc3C2=O)CC1)c1cccc(Cl)c1 [Compound 4c, 2-(2-(4-(2-(3-Chlorophenyl)-2-oxoethyl)piperazin-1-yl)ethyl)isoindoline-1,3-dione]	28.2 ± 2.3	
O=C(CN1CCN(CCN2C(=O)c3ccccc3C2=O)CC1)c1ccc(Cl)cc1Cl [Compound 4d, 2-(2-(4-(2-(2,4-Dichlorophenyl)-2-oxoethyl)piperazin-1-yl)ethyl)isoindoline-1,3-dione]	63 ± 4.06	
O=C(CN1CCN(CCN2C(=O)c3ccccc3C2=O)CC1)c1ccc2ccccc2c1 [Compound 4e, 2-(2-(4-(2-(Naphthalen-2-yl)-2-oxoethyl)piperazin-1-yl)ethyl)isoindoline-1,3-dione]	40.5 ± 2.47	
O=C1c2ccccc2C(=O)N1CCC1CCN(Cc2ccccc2)CC1 [Compound A]		IC50 [2]: 0.03 µM
